# Results taken from patent publication US10377753B2, “Substituted 4-azaindoles and their use as GluN2B receptor modulators” (Janssen Pharmaceutica NV, priority 2015, dated 2019).
# Target: cloned human NR1/NR2B ion channels (Homo sapiens (Human), UniProt Q05586+Q13224)
# Test: HNR2BC: effects of test articles on cloned human NR1/NR2B ion channels expressed in mammalian cells (FLIPR calcium flux)
# Type: cell-based
# Conditions: cloned human NR1/NR2B, Table 5
# In short: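 In a stable Tet-On-induced cell line expressing human GluN1/GluN2B, Calcium 5-loaded cells were preincubated 5 min with compound, then stimulated 5 min with glutamate at ~EC80 plus 10 μM glycine, in pH 7.4 HEPES buffer. FLIPR calcium fluorescence was normalized to control wells.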
# cloned human NR1/NR2B ion channels, sequence (Q13224 27-1484, other chains not shown): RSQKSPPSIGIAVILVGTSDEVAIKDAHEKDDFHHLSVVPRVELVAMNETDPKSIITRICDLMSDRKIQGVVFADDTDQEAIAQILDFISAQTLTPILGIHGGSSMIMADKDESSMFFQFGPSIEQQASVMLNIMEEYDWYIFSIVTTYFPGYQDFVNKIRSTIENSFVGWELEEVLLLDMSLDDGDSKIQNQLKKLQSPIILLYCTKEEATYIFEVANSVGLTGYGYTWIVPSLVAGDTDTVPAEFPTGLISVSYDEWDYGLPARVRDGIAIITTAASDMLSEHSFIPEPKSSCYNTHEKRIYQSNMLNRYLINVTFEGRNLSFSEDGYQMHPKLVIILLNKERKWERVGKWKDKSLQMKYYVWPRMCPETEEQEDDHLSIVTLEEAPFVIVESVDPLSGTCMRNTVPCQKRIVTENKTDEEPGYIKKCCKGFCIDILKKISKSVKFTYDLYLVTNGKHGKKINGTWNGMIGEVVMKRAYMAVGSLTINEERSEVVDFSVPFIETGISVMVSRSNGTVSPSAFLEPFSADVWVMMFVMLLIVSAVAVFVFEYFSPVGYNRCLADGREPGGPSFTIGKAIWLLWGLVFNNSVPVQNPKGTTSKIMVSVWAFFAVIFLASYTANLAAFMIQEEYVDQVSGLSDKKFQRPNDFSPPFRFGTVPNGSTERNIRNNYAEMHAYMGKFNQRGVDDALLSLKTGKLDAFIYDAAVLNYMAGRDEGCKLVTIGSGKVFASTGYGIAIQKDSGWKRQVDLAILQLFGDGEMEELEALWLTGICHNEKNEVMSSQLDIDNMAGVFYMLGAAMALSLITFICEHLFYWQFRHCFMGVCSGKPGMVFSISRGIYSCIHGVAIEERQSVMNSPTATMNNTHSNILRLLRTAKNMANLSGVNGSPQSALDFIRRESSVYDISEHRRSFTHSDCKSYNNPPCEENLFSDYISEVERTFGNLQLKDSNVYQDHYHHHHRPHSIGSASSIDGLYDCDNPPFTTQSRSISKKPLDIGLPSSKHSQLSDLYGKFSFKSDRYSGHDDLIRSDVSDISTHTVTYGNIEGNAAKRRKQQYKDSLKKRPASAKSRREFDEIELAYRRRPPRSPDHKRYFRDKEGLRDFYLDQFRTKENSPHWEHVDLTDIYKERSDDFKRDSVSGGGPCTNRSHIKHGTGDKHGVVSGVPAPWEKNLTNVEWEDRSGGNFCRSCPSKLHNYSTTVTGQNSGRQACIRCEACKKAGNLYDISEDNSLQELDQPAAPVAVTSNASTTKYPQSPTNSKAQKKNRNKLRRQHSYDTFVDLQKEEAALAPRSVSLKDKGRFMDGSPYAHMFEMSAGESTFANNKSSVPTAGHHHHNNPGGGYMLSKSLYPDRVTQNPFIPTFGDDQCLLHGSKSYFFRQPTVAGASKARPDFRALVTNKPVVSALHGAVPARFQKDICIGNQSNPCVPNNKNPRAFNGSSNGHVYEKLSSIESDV
SMILES,IC50 [nM],pIC50
"CN(C)C(=O)Cn1cc(F)c2ncc(-c3ccc(Cl)s3)cc21 [Example 97, 2-[6-(5-Chloro-2-thienyl)-3-fluoro-pyrrolo[3,2-b]pyridin-1-yl]-N,N-dimethyl-acetamide]",63.1,
"CN(C)C(=O)Cn1cc(F)c2ncc(-c3ccc(F)cc3)cc21 [Example 98, 2-[3-Fluoro-6-(4-fluorophenyl)pyrrolo[3,2-b]pyridin-1-yl]-N,N-dimethyl-acetamide]",50.1,
"O=C(Cn1ccc2ncc(-c3cncc(C(F)(F)F)c3)cc21)NC1CC1 [Example 99, N-Cyclopropyl-2-[6-[5-(trifluoromethyl)-3-pyridyl]pyrrolo[3,2-b]pyridin-1-yl]acetamide]",631,
"O=C(Cn1ccc2ncc(-c3ccc(F)c(F)c3)cc21)NC1CC1 [Example 100, N-Cyclopropyl-2-[6-(3,4-difluorophenyl)pyrrolo[3,2-b]pyridin-1-yl]acetamide]",1000,
"O=C(Cn1ccc2ncc(-c3ccc(F)c(C(F)(F)F)c3)cc21)NC1CC1 [Example 101, N-Cyclopropyl-2-[6-[4-fluoro-3-(trifluoromethyl)phenyl]pyrrolo[3,2-b]pyridin-1-yl]acetamide]",200,
"O=C(Cn1ccc2ncc(-c3cncc(C(F)(F)F)c3)cc21)N1CCC1 [Example 102, 1-(Azetidin-1-yl)-2-[6-[5-(trifluoromethyl)-3-pyridyl]pyrrolo[3,2-b]pyridin-1-yl]ethanone]",398,
"O=C(Cn1ccc2ncc(-c3ccc(F)c(F)c3)cc21)N1CCC1 [Example 103, 1-(Azetidin-1-yl)-2-[6-(3,4-difluorophenyl)pyrrolo[3,2-b]pyridin-1-yl]ethanone]",251,
"O=C(Cn1ccc2ncc(-c3ccc(F)c(C(F)(F)F)c3)cc21)N1CCC1 [Example 104, 1-(Azetidin-1-yl)-2-[6-[4-fluoro-3-(trifluoromethyl)phenyl]pyrrolo[3,2-b]pyridin-1-yl]ethanone]",31.6,
"O=C(Cn1ccc2ncc(-c3ccc(F)c(C(F)(F)F)c3)cc21)N1CCCC1 [Example 105, 2-[6-[4-Fluoro-3-(trifluoromethyl)phenyl]pyrrolo[3,2-b]pyridin-1-yl]-1-pyrrolidin-1-yl-ethanone]",39.8,
"O=C(Cn1ccc2ncc(-c3ccc(F)c(C(F)(F)F)c3)cc21)N1CC(F)(F)C1 [Example 106, 1-(3,3-Difluoroazetidin-1-yl)-2-[6-[4-fluoro-3-(trifluoromethyl)phenyl]pyrrolo[3,2-b]pyridin-1-yl]ethanone]",316,
"O=C(Cn1ccc2ncc(-c3ccc(F)c(F)c3)cc21)N1CCOCC1 [Example 107, 2-[6-(3,4-Difluorophenyl)pyrrolo[3,2-b]pyridin-1-yl]-1-morpholino-ethanone]",158,
"O=C(Cn1ccc2ncc(-c3ccc(F)c(C(F)(F)F)c3)cc21)N1CCOCC1 [Example 108, 2-[6-[4-Fluoro-3-(trifluoromethyl)phenyl]pyrrolo[3,2-b]pyridin-1-yl]-1-morpholino-ethanone]",126,
"O=C(Cn1ccc2ncc(-c3ccnc(C(F)(F)F)c3)cc21)N1CCC1 [Example 109, 1-(Azetidin-1-yl)-2-[6-[2-(trifluoromethyl)-4-pyridyl]pyrrolo[3,2-b]pyridin-1-yl]ethanone]",158,
"O=C(Cn1ccc2ncc(-c3ccnc(C(F)(F)F)c3)cc21)NC1CC1 [Example 110, N-Cyclopropyl-2-[6-[2-(trifluoromethyl)-4-pyridyl]pyrrolo[3,2-b]pyridin-1-yl]acetamide]",251,
"O=C(Cn1ccc2ncc(-c3cccc(C(F)(F)F)n3)cc21)NC1CC1 [Example 111, N-Cyclopropyl-2-[6-[6-(trifluoromethyl)-2-pyridyl]pyrrolo[3,2-b]pyridin-1-yl]acetamide]",398,
"Cc1ccc(-c2cnc3ccn(CC(=O)N4CCC4)c3c2)cn1 [Example 112, 1-(Azetidin-1-yl)-2-[6-(6-methyl-3-pyridyl)pyrrolo[3,2-b]pyridin-1-yl]ethanone]",501,
"N#Cc1ccc(-c2cnc3ccn(CC(=O)N4CCC4)c3c2)cn1 [Example 113, 5-[1-[2-(Azetidin-1-yl)-2-oxo-ethyl]pyrrolo[3,2-b]pyridin-6-yl]pyridine-2-carbonitrile]",5010,
"Fc1ccc(-c2cnc3ccn(Cc4cncnc4)c3c2)cc1F [Example 114, 6-(3,4-Difluorophenyl)-1-(pyrimidin-5-ylmethyl)pyrrolo[3,2-b]pyridine]",> 10000,
"Fc1cnc(Cn2ccc3ncc(-c4ccc(F)c(F)c4)cc32)nc1 [Example 115, 6-(3,4-Difluorophenyl)-1-[(5-fluoropyrimidin-2-yl)methyl]pyrrolo[3,2-b]pyridine]",316,
"O=C(C1CCC1)n1ccc2ncc(-c3ccc(F)c(F)c3)cc21 [Example 116, Cyclobutyl-[6-(3,4-difluorophenyl)pyrrolo[3,2-b]pyridin-1-yl]methanone]",794,
"O=C(Cn1ccc2ncc(-c3cccc(C(F)(F)F)n3)cc21)N1CC(F)(F)C1 [Example 117, 1-(3,3-Difluoroazetidin-1-yl)-2-[6-[6-(trifluoromethyl)-2-pyridyl]pyrrolo[3,2-b]pyridin-1-yl]ethanone]",5010,

SMILES,IC50 [nM],pIC50
"O=C(Cn1ccc2ncc(-c3ccc(F)c(F)c3F)cc21)N1CCC1 [Example 118, 1-(Azetidin-1-yl)-2-[6-(2,3,4-trifluorophenyl)pyrrolo[3,2-b]pyridin-1-yl]ethanone]",100,
"O=C(CC1CC1)n1ccc2ncc(-c3ccc(F)c(F)c3)cc21 [Example 119, 2-Cyclopropyl-1-[6-(3,4-difluorophenyl)pyrrolo[3,2-b]pyridin-1-yl]ethanone]",50.1,
"O=C(Cn1ccc2ncc(-c3ccc(F)c(F)c3F)cc21)N1CCCC1 [Example 120, 1-Pyrrolidin-1-yl-2-[6-(2,3,4-trifluorophenyl)pyrrolo[3,2-b]pyridin-1-yl]ethanone]",631,
"O=C(Cn1ccc2ncc(-c3cc(F)cc(F)c3)cc21)N1CC(F)(F)C1 [Example 121, 1-(3,3-difluoroazetidin-1-yl)-2-[6-(3,5-difluorophenyl)pyrrolo[3,2-b]pyridin-1-yl]ethanone]",63.1,
"O=C(Cn1ccc2ncc(-c3cc(F)cc(F)c3)cc21)N1CCCC1 [Example 122, 2-[6-(3,5-Difluorophenyl)pyrrolo[3,2-b]pyridin-1-yl]-1-pyrrolidin-1-yl-ethanone]",39.8,
"O=C(Cn1ccc2ncc(-c3cc(F)c(F)c(F)c3)cc21)N1CCCC1 [Example 123, 1-Pyrrolidin-1-yl-2-[6-(3,4,5-trifluorophenyl)pyrrolo[3,2-b]pyridin-1-yl]ethanone]",20,
"O=C(Cn1ccc2ncc(-c3cc(F)c(F)c(F)c3)cc21)N1CC(F)(F)C1 [Example 124, 1-(3,3-Difluoroazetidin-1-yl)-2-[6-(3,4,5-trifluorophenyl)pyrrolo[3,2-b]pyridin-1-yl]ethanone]",31.6,
"O=C(Cn1ccc2ncc(-c3cc(F)cc(F)c3)cc21)N1CCOCC1 [Example 125, 2-[6-(3,5-Difluorophenyl)pyrrolo[3,2-b]pyridin-1-yl]-1-morpholino-ethanone]",31.6,
"O=C(Cn1ccc2ncc(-c3ccc(F)c(F)c3F)cc21)N1CCOCC1 [Example 126, 1-Morpholino-2-[6-(2,3,4-trifluorophenyl)pyrrolo[3,2-b]pyridin-1-yl]ethanone]",100,
"O=C(Cn1ccc2ncc(-c3cc(F)c(F)c(F)c3)cc21)N1CCOCC1 [Example 127, 1-Morpholino-2-[6-(3,4,5-trifluorophenyl)pyrrolo[3,2-b]pyridin-1-yl]ethanone]",158,
"O=C(Cn1ccc2ncc(-c3ccc(F)c(F)c3)cc21)N1CC(F)C1 [Example 128, 2-[6-(3,4-Difluorophenyl)pyrrolo[3,2-b]pyridin-1-yl]-1-(3-fluoroazetidin-1-yl)ethanone]",63.1,
"O=C(Cn1ccc2ncc(-c3cc(F)cc(F)c3)cc21)N1CC(F)C1 [Example 129, 2-[6-(3,5-Difluorophenyl)pyrrolo[3,2-b]pyridin-1-yl]-1-(3-fluoroazetidin-1-yl)ethanone]",25.1,
"Cc1csc(-c2cnc3ccn(Cc4cccnn4)c3c2)c1 [Example 130, 6-(4-Methyl-2-thienyl)-1-(pyridazin-3-ylmethyl)pyrrolo[3,2-b]pyridine]",,7.7
"Fc1ccc(-c2cnc3ccn(Cc4cccnn4)c3c2)cc1F [Example 131, 6-(3,4-Difluorophenyl)-1-(pyridazin-3-ylmethyl)pyrrolo[3,2-b]pyridine]",126,
"Cc1csc(-c2cnc3ccn(CC(=O)N4CCOCC4)c3c2)c1 [Example 132, 2-[6-(4-Methyl-2-thienyl)pyrrolo[3,2-b]pyridin-1-yl]-1-morpholino-ethanone]",126,
"O=C(Cn1ccc2ncc(-c3ccc(F)cc3F)cc21)N1CCC1 [Example 133, 1-(Azetidin-1-yl)-2-[6-(2,4-difluorophenyl)pyrrolo[3,2-b]pyridin-1-yl]ethanone]",79.4,
"O=C(Cn1ccc2ncc(-c3cccc(F)c3F)cc21)N1CCC1 [Example 134, 1-(Azetidin-1-yl)-2-[6-(2,3-difluorophenyl)pyrrolo[3,2-b]pyridin-1-yl]ethanone]",31.6,
"O=C(Cn1ccc2ncc(-c3cc(F)ccc3F)cc21)N1CCC1 [Example 135, 1-(Azetidin-1-yl)-2-[6-(2,5-difluorophenyl)pyrrolo[3,2-b]pyridin-1-yl]ethanone]",39.8,
"O=C(Cn1cc(F)c2ncc(-c3ccc(F)c(F)c3)cc21)C1CC1 [Example 136, 1-Cyclopropyl-2-[6-(3,4-difluorophenyl)-3-fluoro-pyrrolo[3,2-b]pyridin-1-yl]ethanone]",63.1,
"Cc1csc(-c2cnc3ccn(Cc4ccc(C(F)(F)F)o4)c3c2)c1 [Example 137, 6-(4-Methyl-2-thienyl)-1-[[5-(trifluoromethyl)-2-furyl]methyl]pyrrolo[3,2-b]pyridine]",,7.7
"CC(C)(C)C(=O)Cn1ccc2ncc(-c3ccc(F)c(F)c3)cc21 [Example 140, 1-[6-(3,4-Difluorophenyl)pyrrolo[3,2-b]pyridin-1-yl]-3,3-dimethyl-butan-2-one]",31.6,
